Key:
SAMR1 and SAMP8 mice [1] = test: Three-chamber test (TCT); format: in vivo, mouse; conditions: SAMP8 strain, 5 mg/kg/day, vs SP8 Ct
Description: Male SAMR1 and SAMP8 mice (n = 41) with 20-weeks-old were used to carry out cognitive and molecular analysis. The animals were randomly divided into four groups: SAMR1 control (SR1 Ct) group (n = 11), SAMP8 control (SP8 Ct) group (n = 8), SAMR1 treated with RL-208 (SR1 RL-208 (5 mg/Kg)) group (n = 10) and SAMP8 treated with RL-208 (SP8 RL-208 (5 mg/Kg)) group (n = 12). Animals had free access to food and water, under standard temperature conditions (22±2 °C) and 12h:12h light-dark cycles (300 lux/0 lux). RL-208, (3,4,8,9-tetramethyltetracyclo[4.4.0.0^3,9.0^4,8]dec-1-yl)-methylamine hydrochloride, (5 mg/kg/day) was administered through drinking water for four weeks before starting the cognitive test. RL-208 was administered up to euthanasia (Figure 1A). Water consumption was controlled each week for each cage and strain. […]
The three-chamber test (TCT) was used to assess preference for social novelty (time spent with a novel intruder in contrast with a familiar one) and sociability (time spent with rodents). […] Each test consists of 15 minutes and is recorded with a camera. […] The time spent in each chamber was evaluated. Then, an intruder (same-sex and age) was added to one of the rooms in a metal cup, and behaviour is recorded for 10 minutes. The time spent in each chamber is evaluated as well as the time interacting with the intruder (e.g., sniffing, rears, entries in each chamber).

SAMR1 and SAMP8 mice [2] = test: Hippocampal gene expression by real-time qPCR; format: in vivo, mouse; conditions: hippocampus
Description: Male SAMR1 and SAMP8 mice (n = 41) with 20-weeks-old were used to carry out cognitive and molecular analysis. The animals were randomly divided into four groups: SAMR1 control (SR1 Ct) group (n = 11), SAMP8 control (SP8 Ct) group (n = 8), SAMR1 treated with RL-208 (SR1 RL-208 (5 mg/Kg)) group (n = 10) and SAMP8 treated with RL-208 (SP8 RL-208 (5 mg/Kg)) group (n = 12). Animals had free access to food and water, under standard temperature conditions (22±2 °C) and 12h:12h light-dark cycles (300 lux/0 lux). RL-208, (3,4,8,9-tetramethyltetracyclo[4.4.0.0^3,9.0^4,8]dec-1-yl)-methylamine hydrochloride, (5 mg/kg/day) was administered through drinking water for four weeks before starting the cognitive test. RL-208 was administered up to euthanasia (Figure 1A). Water consumption was controlled each week for each cage and strain. Afterwards, RL-208 concentration was adjusted accordingly to reach the optimal dose for each cage. Total RNA isolation from hippocampal samples was carried out using TRIsure^TM reagent following the manufacturer’s instructions (Bioline, Meridian Bioscience Inc., UK). The yield, purity, and quality of RNA were determined spectrophotometrically with a NanoDrop^TM ND-1000 (Thermo Scientific, Wilmington, DE, USA) apparatus and an Agilent 2100B Bioanalyzer (Agilent Technologies, Palo Alto, CA, USA). RNAs with 260/280 ratios and RIN higher than 1.9 and 7.5, respectively, were selected. Reverse transcription-polymerase chain reaction (RT-PCR) was performed as follows: 2 μg of messenger RNA (mRNA) was reverse-transcribed using the High Capacity cDNA Reverse Transcription kit (Applied Biosystems, Foster City, CA, USA). Real-time quantitative PCR (qPCR) was used to quantify the mRNA expression of OS and synaptic plasticity genes listed in Table S2. SYBR® Green real-time PCR was performed on a Step One Plus Detection System (Applied-Biosystems, Foster City, CA, USA) employing SYBR® Green PCR Master Mix (Applied-Biosystems, Foster City, CA, USA). Each reaction mixture contained 6.75 μL of complementary DNA (cDNA) (which concentration was 2 μg), 0.75 μL of each primer (which concentration was 100 nM), and 6.75 μL of SYBR® Green PCR Master Mix (2X). Data were analyzed utilizing the comparative cycle threshold (Ct) method (ΔΔCt), where the housekeeping gene level was used to normalize differences in sample loading and preparation. Normalization of expression levels was performed with β-actin for SYBR® Green-based real-time PCR results. Each sample was analyzed in duplicate, and the results represent the n-fold difference of the transcript levels among different groups.

CYP3A4 = target: T1, CYP3A4 (Homo sapiens, UniProt P08684); test: Cytochrome inhibition, fluorescent detection (7-BFC and DBF substrates); format: in vitro ADME
T1 construct: host or cells: insect cell microsomes
T1 sequence (P08684 whole entry): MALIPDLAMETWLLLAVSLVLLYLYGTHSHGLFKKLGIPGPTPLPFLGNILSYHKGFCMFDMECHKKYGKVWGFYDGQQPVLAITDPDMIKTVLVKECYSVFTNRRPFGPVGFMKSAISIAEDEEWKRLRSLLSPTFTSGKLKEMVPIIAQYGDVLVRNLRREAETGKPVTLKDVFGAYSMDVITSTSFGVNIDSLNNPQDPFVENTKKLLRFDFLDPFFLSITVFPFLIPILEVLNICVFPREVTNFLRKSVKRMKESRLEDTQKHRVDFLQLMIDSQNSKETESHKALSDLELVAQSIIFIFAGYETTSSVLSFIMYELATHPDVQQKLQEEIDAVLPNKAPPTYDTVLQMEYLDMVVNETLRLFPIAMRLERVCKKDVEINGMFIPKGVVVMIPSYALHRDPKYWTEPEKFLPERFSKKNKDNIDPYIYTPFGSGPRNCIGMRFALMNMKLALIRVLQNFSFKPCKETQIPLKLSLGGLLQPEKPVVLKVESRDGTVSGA
Description: To screen the inhibition potential of the compounds, recombinant human cytochrome P450 enzymes (CYP1A2, CYP2C9, CYP2C19, CYP2D6, and CYP3A4) and probe substrates were used with the fluorescent detection method. Incubations were conducted in 200-µL volume 96 well microtiter plates (COSTAR 3915). Addition of cofactor-buffer mixture (KH2PO4 buffer, 1.3 mM NADP+, 3.3 mM MgCl2, 3.3 mM Glucose-6-phosphate and 0.4 U/mL Glucose-6-phosphate Dehydrogenase), supersomes control, standard inhibitors (Furafyline, Tranylzypromine, Ketoconazole, Sulfaphenazole, and Quinidine; from Sigma Aldrich), and test compounds to plates were carried out using a a liquid handling station (Zephyr Caliper). The plate was then pre-incubated at 37 °C for 5 min, and the reaction initiated by the addition of pre-warmed enzyme/substrate (E/S) mix. […] Fluorescence per well was measured using a fluorescence plate reader (Tecan M1000 pro), and the percentage of inhibition was calculated.

CC12CC3CC1(C)C1(C)CC3(CN)CC21C.Cl [RL-208, (3,4,8,9-tetramethyltetracyclo [4.4.0.0^3,9.0^4,8]dec-1-yl)methylamine hydrochloride]
time sniffing the intruder (sociability) (SAMR1 and SAMP8 mice [1]): significantly augmented | Tgf gene expression (SAMR1 and SAMP8 mice [2]; RL-208 treated mice groups vs control groups): significant gain | Vgf gene expression (SAMR1 and SAMP8 mice [2]; SP8 RL-208 vs SP8 Ct): significant increase | Vgf gene expression (SAMR1 and SAMP8 mice [2]; between SR1 mice groups): no changes | Cox2 gene expression (SAMR1 and SAMP8 mice [2]; treated groups vs controls, significant in the SP8 strain): decreased | Hmox1 gene expression (SAMR1 and SAMP8 mice [2]; treated mice): elevated | CYP3A4 (BFC) inhibition (CYP3A4; recombinant human CYP3A4, substrate BFC): 35 ± 4% | CYP3A4 (DBF) inhibition (CYP3A4; recombinant human CYP3A4, substrate DBF): 3 ± 1%

— PMC7151078, “A Novel NMDA Receptor Antagonist Protects against Cognitive Decline Presented by Senescent Mice” (Pharmaceutics, 2020)
